Usually EC50 stands for the midpoint of the concentration-response curve. Low values mean higher potency in that assay, high ones lower potency in that assay.

Data set [1] addresses T1, OR11A1 (Homo sapiens, UniProt Q9GZK7).
T1 construct: expressed in transfected cells; host or cells: HEKOlf (HEK293 stably expressing human Galpha-olf and bovine CNGA2)
T1 sequence (Q9GZK7 1-315): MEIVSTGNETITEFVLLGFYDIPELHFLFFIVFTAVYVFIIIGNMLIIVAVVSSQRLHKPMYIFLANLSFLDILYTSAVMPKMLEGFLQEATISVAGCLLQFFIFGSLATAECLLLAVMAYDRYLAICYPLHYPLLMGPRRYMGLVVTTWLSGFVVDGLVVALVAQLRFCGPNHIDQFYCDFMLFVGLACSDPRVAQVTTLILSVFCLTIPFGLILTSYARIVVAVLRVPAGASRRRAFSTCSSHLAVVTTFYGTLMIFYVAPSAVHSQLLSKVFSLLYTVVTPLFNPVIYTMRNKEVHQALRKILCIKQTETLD
Conditions: Adipietro et al., PLoS Genet. 2012; cited from earlier work.

Data set [2] deals with T1, OR11A1. As to the kind of experiment: CRE-luciferase reporter assay in HEKOlf cells transiently transfected with OR11A1. Conditions: for EC50: Example 4, Table 5, 0.03-100 µM tested; for Potency and efficacy on OR11A1 (comparison between odorants): 0.1 to 100 µM (Figure 6). Type of data set: cell-based. The method, then:
(§1) The experiments were performed using a HEK293 cell line (deposited at the ATCC under accession n° CRL-1573) stably expressing the Gαolf G-protein and the cyclic nucleotide gated ion channel A2 subunit (CNGA2) (herein called HEKOlf). As described by Shirokova et al., 2005, the human Gαolf cDNA was cloned into the mammalian expression vector pPuro and cDNA for the bovine cyclic nucleotide gated ion channel A2 (CNGA2) subunit was cloned into the mammalian expression vector pcDNA3. Both constructs were transfected using Lipofectamine2000 (Invitrogen) following the manufacturer's instructions. Cellular clones stably expressing Gαolf and CNGA2 were obtained by antibiotic selection with 0.5µg/ml Puromycin and 200µg/ml Geneticin.
All odorants were stored in the dark at 4°C upon delivery. They were prepared at 100mM stock solutions using DMSO as a solvent and stored at -20°C. On the day of the experiment the different stock solutions were directly diluted in the assay buffer (Tyrode's buffer) having the following composition: 5mM KCI, 130mM NaCl, 2mM CaCl2, 5mM NaHCO3, 1mM MgCl2, 20mM HEPES, pH7.4.
(§2) All transient transfections were performed with Lipofectamine 2000 (Invitrogen) according to the manufacturer's protocol. 10µl Lipofectamine 2000 were diluted in 500 µl DMEM and incubated for 5 minutes at room temperature. At the same time, 3µg of plasmid DNA were diluted in 500µl DMEM and added to the Lipofectamine 2000 mix to obtain a final volume of 1000µl. After incubation for a further 30 minutes at room temperature, the DNA-Lipofectamine complex was added to 1000µl of a cell suspension containing 1.600.000 cells/ml. Subsequently, 25µl per well of the complete mixture were seeded in black 384 well polystyrene assay plates. 25µl DMEM containing 20% FBS were added to each well 3 hours post-transfection.
(§3) The cDNAs for all olfactory receptors and an empty control vector were co-transfected with pGL4.29 (Promega). The pGL4.29 vector contains a cyclic adenosine monophosphate (cAMP) response element (CRE) that drives the transcription of the luciferase reporter gene luc2P (Photinus pyralis). luc2P is a synthetically-derived luciferase sequence with humanized codon optimization that is designed for high expression and reduced anomalous transcription.
In this assay, the interaction of an odorant with its cognate olfactory receptor leads to the activation of the human Gαolf G-protein. Gαolf is a stimulatory G-protein (Gαs) and activates adenylate cyclase, which converts adenosine triphosphate (ATP) into cAMP. Therefore, the activity of the transcribed luciferase can be used as an indication of olfactory receptor activation. 24 hours post-transfection the medium was removed from the transfected cells and 30 µl Tyrode's buffer containing the diluted odorants were added and incubated for 6 hours at 37°C. The cells were then transferred into an automated fluorometric imaging plate reader (FLIPR^TETRA, Molecular Devices). Subsequently, 25µl of a mixture composed of Triton X-100 and luciferin (1:1) were added. The addition of this mixture led to cell lyses and allowed interaction of the luciferase with its substrate luciferin resulting in a detectable emission of light.
The data obtained from different well replicates were analyzed with Excel, ScreenWorks, and SigmaPlot 10. The responses of each receptor to the odorants were divided by the mean responses of the receptor towards Tyrode's buffer (fold of change FOC1). The specificity of FOC1 was checked by comparing with a second FOC (FOC2) obtained by stimulating a control sample, consisting in an empty expression vector, with the same odorants and Tyrode's buffer. The mean and standard deviation of the resulting fold of change values were calculated and plotted in vertical bar charts or concentration-response curves fitted by the SigmaPlot 10 software.
Background: In a reporter assay the amount or activity of a reporter protein is the signal.

A further data set deals with T2, OR11L1 (Homo sapiens, UniProt Q8NGX0).
T2 construct: expressed in transfected cells; host or cells: HEKOlf (HEK293 stably expressing human Galpha-olf and bovine CNGA2)
T2 sequence (Q8NGX0 1-322): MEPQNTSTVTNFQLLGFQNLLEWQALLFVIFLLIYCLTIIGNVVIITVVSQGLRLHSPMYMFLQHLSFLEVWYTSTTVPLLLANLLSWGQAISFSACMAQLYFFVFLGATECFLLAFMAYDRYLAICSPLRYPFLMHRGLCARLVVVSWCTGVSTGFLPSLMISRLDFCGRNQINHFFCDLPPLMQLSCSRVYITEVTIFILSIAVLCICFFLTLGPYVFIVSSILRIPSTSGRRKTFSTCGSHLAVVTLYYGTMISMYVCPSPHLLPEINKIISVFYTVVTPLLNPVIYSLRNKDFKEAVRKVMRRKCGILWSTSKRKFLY
As to the kind of experiment: CRE-luciferase reporter assay in HEKOlf cells transiently transfected with OR11L1. Conditions: Example 3; 10/30/100 µM. The format is cell-based. The method, then:
as §1
All odorants were stored in the dark at 4°C upon delivery. […]
In this assay, the interaction of an odorant with its cognate olfactory receptor leads to the activation of the human Gαolf G-protein. […] The cells were then transferred into an automated fluorometric imaging plate reader (FLIPR^TETRA, Molecular Devices). […]
(§4) The data obtained from different well replicates were analyzed with Excel, ScreenWorks, and SigmaPlot 10. […] The mean and standard deviation of the resulting fold of change values were calculated and plotted in vertical bar charts or concentration-response curves fitted by the SigmaPlot 10 software. […]

Data set [3] concerns seven other OR11A1-related olfactory receptors. As to the kind of experiment: CRE-luciferase reporter assay on OR11A1 related receptors. The format is cell-based, human. Conditions: 10/30/100 µM. The method, then:
as §1, §2, §3
In this assay, the interaction of an odorant with its cognate olfactory receptor leads to the activation of the human Gαolf G-protein. Gαolf is a stimulatory G-protein (Gαs) and activates adenylate cyclase, which converts adenosine triphosphate (ATP) into cAMP. Therefore, the activity of the transcribed luciferase can be used as an indication of olfactory receptor activation. […] The cells were then transferred into an automated fluorometric imaging plate reader (FLIPR^TETRA, Molecular Devices). […]
as §4

The nature of data set [4]: Long-lasting analysis on scent strip (GC-MS with internal standard). The format is physicochemical. Conditions: for POG (GC-MS signal), sample 1-3 / Ratio POG/IS, sample 1-3: individual scent strips, listed as POG. The method, then:
In one embodiment, the long-lasting analysis is carried out as follows: 50 µl of a 1 % solution of the identified candidate to be tested in alcohol, preferably ethanol, are applied on a scent strip, preferably a cellulosic scent strip, to be dosed. The strip is allowed to dry under ambient laboratory conditions, with normal room air movement, in particular no fan, heating or any mean or device to accelerate evaporation. After different times, each strip or at least the part of the scent strip including the area where the solution of the identified candidate to be tested was applied is extracted using 3 ml of alcohol, preferably ethanol, containing an internal standard, such as methyl decanoate. The extracts are then analyzed by gas chromatography and the result is normalized for the principal molecular ion of the identified candidate using the value for the internal standard.
50 µl of a 1 % solution of patchouli alcohol in ethanol was added by pipette to the tip to a series of different scent strips (SARL H. GRANGER-VEYRON, Privas, France). The strips were allowed to dry under ambient laboratory conditions.
After different times (t0, t0+1hour, t0+2hours, t0+4hours, t0+8hours) the tip of a strip where the 50 µl of the solution of the tested material had been applied was cut and put in a 30 ml bottle and extracted using 3 ml of ethanol, containing 50 µl of methyl decanoate as internal standard (10000 ppm solution in cyclohexane), added to each bottle. Care was taken to ensure the entire area around the point of application was included in the area that was cut and extracted. The content of the bottles was mixed for 30 min on a roller bed, and 2 ml vials were then filled with each sample.
Samples were triplicated, i.e. 3 scent strip tips were analysed for each time point.
In a first series of experiments, samples taken at t0, t0+1hour and t0+2hours were analyzed by GC-MS on a […] gas chromatography column (column BC-WAX (50m * 0.25mm * 0.15µm) which is a GC Sciences column supplied by Interchim, Montluçon, France).
In a second series of experiments, samples taken at t0, t0+4hours and t0+8hours were analyzed by GC-MS on a non-polar gas chromatography column (HP-5MS UI (30m * 0.25mm * 0.25µm) which is an Agilent column supplied by Chromoptic, Courtaboeuf, France).
In Tables 6-11, PA stands for patchouli alcohol and IS stands for the internal standard, i.e. methyl decanoate. When plotting the residual concentration of patchouli on the scent strip as a function of time, the mean ratio at t0 was normalized to 100 and then t0+1h, t0+2h, t0+4h and t0+8h were calculated; t0 being defined as 2 minutes after dosing the 50 µl of the solution of the tested material, which was applied towards the tip of the scent strip.
A "long-lasting" analysis of pogostone was performed as described in Example 5 with samples taken at t0, t0+1hour and t0+2hours.
In Tables 12-14 herebelow, POG stands for pogostone and IS stands for the internal standard, i.e. methyl decanoate. The mean ratio at t0 was normalized as described in Example 5.

Where [5] appears, read: Example 4, 3, 10 and 30 µM (Figure 5).

Several values for one entry are separate records, joined by “and”; a condition that tells them apart may be missing. Equal values may be shown once. Read-outs that look alike come from different tables or passages of the source.

For `CCC1(O)C2(C)CCC(C2)C1(C)C` (centres unmarked) [2-ethylfenchol], the “activation of OR11A1” value at OR11A1 [1] was “activation of OR11A1”.
With `CC1(C)C2CCC3(C)C4C(CCC13O)C24` (centres unmarked) [Patcho 315, 6a,7,7-trimethyldecahydro-1,4-methanocyclopropa[de]naphtalen-1-ol], the “activation of OR11A1” value at OR11A1 [2] (Example 3, 10/30/100 µM) is recorded as “strongly activated”; on OR11A1 [2] (setting [5]), “strongly activated”. Also, the EC50 at OR11A1 [2] was 2.9 ± 0.9 µM. The “Potency and efficacy on OR11A1 (comparison between odorants)” value (“Potency and efficacy on OR11A1” below) on OR11A1 [2] (Example 4) was “highest”. In addition, at OR11L1, the “response in cells transfected with OR11L1” value is reported as “unable to elicit a detectable response”. In addition, the fold of change result in data set [3] (Example 3, figure 4) is recorded as “around 1”. The “response of seven other OR11A1-related olfactory receptors” value in data set [3] (Example 3) was “none of the seven other OR11A1-related olfactory receptors responded”.
`Cc1cc(O)c(C(=O)CCC(C)C)c(=O)o1` [Pogostone, pogostone] had an EC50 at OR11A1 [2] of 14.8 ± 3.3 µM. For the same compound, the “Potency and efficacy on OR11A1” value at OR11A1 [2] (Example 4) is “comparable”. For the same compound, the “activation of OR11A1” value at OR11A1 [2] (setting [5]) was “able to elicit activation”. Further, in data set [4] (after 1 hour on scent strip), the retained initial concentration entry was “at least 10%”. Besides, in data set [4] (t0), the “POG (GC-MS signal), mean value” is 1.11E+06; the “Ratio POG/IS, mean value” is recorded as 2.61E-01; the “POG (GC-MS signal), sample 1-3” value is 1.17E+06 and 1.06E+06 and 1.09E+06; the “Ratio POG/IS, sample 1-3” value is 2.92E-01 and 2.45E-01 and 2.48E-01. Besides, in data set [4] (t0+1h), the “POG (GC-MS signal), mean value” is recorded as 9.55E+05; the “Ratio POG/IS, mean value” is on record as 2.08E-01; the “POG (GC-MS signal), sample 1-3” value is 1.05E+06 and 9.11E+05 and 9.09E+05; the “Ratio POG/IS, sample 1-3” value was 2.22E-01 and 1.98E-01 and 2.03E-01. In data set [4] (t0+2h), the “POG (GC-MS signal), mean value” is 8.34E+05; the “Ratio POG/IS, mean value” came to 1.82E-01; the “POG (GC-MS signal), sample 1-3” value was 8.11E+05 and 8.75E+05 and 8.15E+05; the “Ratio POG/IS, sample 1-3” value was 1.75E-01 and 1.87E-01 and 1.85E-01.
As to `CC1(C)CCC[C@]2(O)C(C)(C)[C@H]3CC[C@@]12C3` [Terranol, terranol], the “activation of OR11A1” value on OR11A1 [2] (Example 4, up to 100µM) is “did not activate”.
Consider `CC1CCC2C(C)(C)C3CC12CC1OC13C` (centres unmarked) [andrane], for which the “activation of OR11A1” value on OR11A1 [2] (Example 4, up to 100µM) is “did not activate”.
norpatchouli alcohol returned an EC50 at OR11A1 [2] of 10.7 ± 2.6 µM. Further, the “Potency and efficacy on OR11A1” value at OR11A1 [2] (Example 4) was “comparable”. Also, the “activation of OR11A1” value at OR11A1 [2] (setting [5]) is given as “able to elicit activation”.
